According to patent publication US20230271956A1, “AMIDE DERIVATIVES” (Merck Patent GmbH, priority 2020, published 2023):
pIC50: −log10 of the molar value.

Tests used:
human rec ACSS2 = target: T1, human rec ACSS2 (Homo sapiens, UniProt Q9NR19); experiment: Biochemical activity ACSS2 assay (AMP-Glo); conditions: human recombinant ACSS2, AMP-Glo, 180 min at 37° C.
T1 construct: myc (C); purchased Origene
Procedure: The biochemical activity assay for ACSS2 is based on the detection of released AMP by AMP-Glo ™ Assay kit (Promega, Madison). The assay is run in three steps: the enzymatic reaction in which human rec ACSS2 activates acetate with ATP and Coenzyme A as cosubstrates to acetyI-coA thereby releasing AMP and the detection reaction of AMP by AMP Glo assay in which after the destruction of the residual ATP with AMP Glo reagent 1 produced AMP is converted to ATP that is measured in a luciferase assay system (detection reagent). The ACSS2 activity correlates with the detected luminescence signal.
The assay was performed in Perkin Elmer 384well white Proxiplates in a total volume of 8 µl.
1 nM (fc) C-term myc tagged ACSS2 (human, recombinant, Origene, Rockville, US) and a mixture of 100 µM (fc) ATP, 100 µM (fc) Coenzyme A and 500 µM (fc) sodium acetate were incubated in a total volume of 5 µl (50 mM Hepes, 1 mM Mg-chloride, 150 mM NaCl, 1 mM DTT, 0.01 % (w/v) BSA, 0.3 % DMSO, pH 7.5) in the absence or presence of the test compound (10 dilution concentrations, start conc 30 µM) for 180 min at 37° C. The reaction was stopped and residual ATP destroyed by the addition of 1 µl AMP Glo reagent solution (Promega, Madison, US). After 1 h incubation at room temperature 2 µl of AMP Glo detection reagent was added and the assay was incubated for 0.75 hr at room temperature. The luminescence signal was measured with an Envision multimode reader (Perkin Elmer LAS Germany GmbH) at 700 nm in luminescence mode. The full value used was the inhibitor-free reaction. The pharmacological zero value was generated by addition of ACSS2 inhibitor (Ac-CoA Synthase Inhibitor - CAS 508186-14-9 -Calbiochem) in a final concentration of 5 µM. The inhibitory values (IC50) were determined using the program Assay Analyzer® from GeneData.

ACSS2 = target: T2, ACSS2 (Homo sapiens, UniProt Q9NR19); experiment: Cellular assay of 14C acetate incorporation into histones (IC50 ACSS2 cellular histone); type: cell-based; conditions: HCT-15 cells
T2 construct: endogenous fatty acid synthesis activity in the human HCT-15 cancer cell line; endogenous in cells; host or cells: HCT-15
Procedure: This protocol describes a cellular assay capable to quantify endogenous histone acetylation activity in the human HCT-15 cancer cell line following the incorporation of extracellularly administered radiolabeled ^14C acetate with a scintillation based read out on acid extracted histones.
HCT-15 cells are trypsinized, washed and suspended in DMEM culture medium supplemented with penicillin/streptomycin (100 U/mL), sodium pyruvate (1 mM), and 10% FBS
Compounds serial dilutions are prepared in 96-well V-bottom microplate from 10 mM stock solutions in DMSO. From these dilutions 0.5 µl are transferred to a fresh plate including pure DMSO as negative control. The dilutions are prepared such, that the final concentration in the assay is 1/400 of the concentration in the serial dilution. The final DMSO concentration in the assay is 0.25 %.
The cell suspension is seeded at densities of 2x10^5 cells per 170 µl into individual wells of a 96 well plate each containing 0.5 µl aliquots of compound serial dilutions and are kept for 1h in a cell incubator. To each well 30 µL of a mixture containing 0.5 mCi/mL of ^14C-acetate with full medium are added. Then, the wells are incubated for 3 hrs in the cell incubator.
Further steps of the procedure should be conducted on ice or instrumentations precooled to 4° C. Cells are sedimented in the 96-well V-bottom microplate by centrifugation (Eppendorf 5804 R) at 1200 rpm for 5 min. The supernatant is removed and the cells are washed twice with 200µL of PBS-NaB (5 mM sodium butyrate) buffer by iterative resuspension and centrifugation. Finally, the cells are resuspended in 50 µL of TEB (PBS-NaB + 0.5 % Triton X-100) and left on ice for 10 minutes. After centrifugation at 2300 rpm for 10 minutes at 4° C. the supernatant is removed, the remaining pellet is suspended in 50 µL of 0.2 M HCl and incubated over night at 4° C. After incubation the well plate is shaken for 2 minutes in a MTP plate shaker set to 1200 rpm and then centrifuged at 3700 rpm for 10 mins. The lysate is carefully aspirated (~43 µL) and transferred into a white MTP plate (Greiner bio-one 65509). 90 µL of Ultima Gold XR scintillation cocktail are added and the plates are sealed with a transparent cover tape before mixing vigorously using plate shaker set to 1200 rpm. Radioactivity from ^14C incorporation in the wells is measured as CPM count in a MicroBeta Trilux luminescence counter.

T2 sequence (Q9NR19 whole entry): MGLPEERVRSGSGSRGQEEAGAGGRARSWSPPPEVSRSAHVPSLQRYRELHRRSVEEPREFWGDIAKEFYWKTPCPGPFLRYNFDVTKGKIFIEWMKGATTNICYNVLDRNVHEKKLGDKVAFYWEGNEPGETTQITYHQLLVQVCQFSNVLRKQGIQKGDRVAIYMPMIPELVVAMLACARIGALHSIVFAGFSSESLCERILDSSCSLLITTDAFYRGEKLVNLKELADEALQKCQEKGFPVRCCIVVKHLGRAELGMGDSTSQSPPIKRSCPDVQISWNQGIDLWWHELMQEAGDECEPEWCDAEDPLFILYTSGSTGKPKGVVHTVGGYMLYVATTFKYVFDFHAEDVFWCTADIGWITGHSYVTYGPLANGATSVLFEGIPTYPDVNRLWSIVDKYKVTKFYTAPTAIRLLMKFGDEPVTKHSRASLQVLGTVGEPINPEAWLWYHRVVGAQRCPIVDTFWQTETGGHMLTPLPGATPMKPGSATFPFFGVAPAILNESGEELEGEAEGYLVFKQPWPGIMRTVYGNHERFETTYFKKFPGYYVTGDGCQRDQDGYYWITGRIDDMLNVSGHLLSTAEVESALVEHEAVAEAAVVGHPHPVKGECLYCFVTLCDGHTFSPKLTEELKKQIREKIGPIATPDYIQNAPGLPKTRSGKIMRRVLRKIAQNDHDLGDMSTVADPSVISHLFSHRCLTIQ
T1 sequence (Q9NR19 whole entry): as above

| pIC50 (human rec ACSS2) | pIC50 (ACSS2) | SMILES |
| --- | --- | --- |
| 5.00 to 7.00 | 7.00 to 8.00 | CCc1nc(CNC(=O)c2cc3c(nc2OC)nc(C(O)(c2ccccc2)c2ccccc2)n3CC)no1 [Compound 63, 1-ethyl-N-[(5-ethyl-1,2,4-oxadiazol-3-yl)methyl]-2-(hydroxydiphenylmethyl)-5-methoxy-1H-imidazo[4,5-b]pyridine-6-carboxamide] |
| 7.00 to 8.00 | 7.00 to 8.00 | CCn1c(C(O)(c2ccccc2)c2ccccc2)nc2nc(Cl)c(C(=O)Nc3cnn(CCOC)c3)cc21 [Compound 67, 5-chloro-1-ethyl-2-(hydroxydiphenylmethyl)-N-[1-(2-methoxyethyl)-1H-pyrazol-4-yl]-1H-imidazo[4,5-b]pyridine-6-carboxamide] |
| 7.00 to 8.00 | 7.00 to 8.00 | CCn1c(C(O)(c2ccccc2)c2ccccc2)nc2nc(OC)c(C(=O)Nc3cnn(CCOC)c3)cc21 [Compound 70, 1-ethyl-2-(hydroxydiphenylmethyl)-5-methoxy-N-[1-(2-methoxyethyl)-1H-pyrazol-4-yl]-1H-imidazo[4,5-b]pyridine-6-carboxamide] |
| 8.00 to 9.00 | 8.00 to 9.00 | CCn1ccc(NC(=O)c2cc3c(nc2OC)nc(C(O)(c2ccccc2)c2ccccc2)n3CC)n1 [Compound 77, 1-ethyl-N-(1-ethyl-1H-pyrazol-3-yl)-2-(hydroxydiphenylmethyl)-5-methoxy-1H-imidazo[4,5-b]pyridine-6-carboxamide] |
| 8.00 to 9.00 | 9.00 to 11.00 | CCn1cnc(NC(=O)c2cc3c(nc2Cl)nc(C(O)(c2ccccc2)c2ccccc2)n3CC)c1 [Compound 82, 5-chloro-1-ethyl-N-(1-ethyl-1H-imidazol-4-yl)-2-(hydroxydiphenylmethyl)-1H-imidazo[4,5-b]pyridine-6-carboxamide] |
| 8.00 to 9.00 | 9.00 to 11.00 | CCn1cnc(NC(=O)c2cc3c(nc2Cl)nc(C(O)(c2ccccc2)c2ccccc2)n3CC)n1 [Compound 99, 5-chloro-1-ethyl-N-(1-ethyl-1H-1,2,4-triazol-3-yl)-2-(hydroxydiphenylmethyl)-1H-imidazo[4,5-b]pyridine-6-carboxamide] |
| 9.00 to 11.00 | 8.00 to 9.00 | CCn1cnc(NC(=O)c2cc3c(nc2Cl)nc(C(O)(c2ccccc2F)c2ccccc2F)n3CC)n1 [Compound 100, 2-[bis(2-fluorophenyl)(hydroxy)methyl]-5-chloro-1-ethyl-N-(1-ethyl-1H-1,2,4-triazol-3-yl)-1H-imidazo[4,5-b]pyridine-6-carboxamide] |
| 8.00 to 9.00 | 9.00 to 11.00 | CCn1cc(NC(=O)c2cc3c(nc2Cl)nc(C(O)(c2ccccc2F)c2ccccc2F)n3CC)cn1 [Compound 101, 2-[bis(2-fluorophenyl)(hydroxy)methyl]-5-chloro-1-ethyl-N-(1-ethyl-1H-pyrazol-4-yl)-1H-imidazo[4,5-b]pyridine-6-carboxamide] |
| 8.00 to 9.00 | 8.00 to 9.00 | CCn1cc(NC(=O)c2cc3c(nc2OC)nc(C(O)(c2ccccc2)c2ccccc2)n3CC)cn1 [Compound 105, 1-ethyl-N-(1-ethyl-1 H-pyrazol-4-yl)-2-(hydroxydiphenylmethyl)-5-methoxy-1 H-imidazo[4,5-b]pyridine-6-carboxamide] |
| 8.00 to 9.00 | 8.00 to 9.00 | CCn1cnc(NC(=O)c2cc3c(nc2C)nc(C(O)(c2ccccc2F)c2ccccc2F)n3CC)n1 [Compound 106, 2-[bis(2-fluorophenyl)(hydroxy)methyl]-1-ethyl-N-(1-ethyl-1H-1,2,4-triazol-3-yl)-5-methyl-1H-imidazo[4,5-b]pyridine-6-carboxamide] |
| 8.00 to 9.00 | 8.00 to 9.00 | CCn1cc(NC(=O)c2cc3c(nc2C)nc(C(O)(c2ccccc2)c2ccccc2)n3CC)cn1 [Compound 109, 1-ethyl-N-(1-ethyl-1H-pyrazol-4-yl)-2-(hydroxydiphenylmethyl)-5-methyl-1H-imidazo[4,5-b]pyridine-6-carboxamide] |
